{"source": "patent US9289445B2", "about": "“Compositions and methods for treating or preventing a retrovirus infection” (University of Rochester, priority 2011, dated 2016)", "key": {"[1]": {"test_system": "HIV-1 vector (DHIV-GFP) in activated CD4+ T cells", "experiment": "HIV-GFP vector transduction of activated CD4+ T cells (GFP FACS)", "assay_type": "cell-based", "conditions": "rACT 0.1 and 1 mM, activated CD4+ T cells compared to macrophages", "quoted_text": "Next, rACT was evaluated for its ability to inhibit HIV-1 replication in non-dividing cells. The transduction efficiency of an HIV-1 vector in primary human macrophages in the presence and absence of rACT was measured. Human macrophages, which were prepared from multiple donors, were pre-incubated with various concentrations of rACT, and then transduced with an HIV vector (D3-GFP), which expressed all HIV-1 proteins except Env and Nef (replaced with eGFP). Virus infectivity was determined by FACS analysis for GFP expression at 7 days post infection. […] Finally, the effect of rACT on HIV-1 infection in activated CD4^+ T cells was examined.\n(§3) Dideoxy uracil triphosphate (ddUTP) was assessed for its ability to inhibit viral reverse transcription in non-dividing cells. Primary human macrophages and CD4^+ T-cells were isolated from human buffy coats and pretreated with ddUTP. The treated cells were then transduced with a single round of VSV-G pseudotyped HIV-1 vector D3-HIV in the presence of various concentrations of drug.\nrACT was tested in T cells as follows, human primary activated CD4^+ T cells (2.5×10^5) cells isolated from two donors were pre-treated with 0, 0.1, and 1 mM rACT for 4 hours, and then the cells were transduced with DHIV-GFP. The transduced cells were fixed at 48 hours post transduction, and analyzed by FACS for determining the percent of GFP cells. […]"}, "[2]": {"test_system": "U937 cells", "experiment": "Cytotoxicity of rACT, FACS/trypan blue", "assay_type": "cell-based, human", "conditions": "concentrations up to 1 mM, 2 days", "protocol": "(§1) FIGS. 6A-6E show inhibition of HIV-1 reverse transcription by 3′ deoxyadenosine chain terminator (rACT) in human primary macrophages and its cytotoxicity. FIG. 6A includes a graph showing the cytotoxicity of rACT in human primary CD4^+ T cells, U937 cells, and CHME5 cells. These three types of cells were cultured and treated with different concentrations of rACT (up to 1 mM) for 2 days, and the percentage of live and dead cells were determined by FACS and/or trypan blue staining. The percentage of the live cells in the absence of rACT was used for normalization (100%), and the base line cell death of these cell types in the absence of rACT were less than 5%. FIG. 6B includes FACS results. […] The percentages of GFP positive macrophages and PI positive cells in a representative donor, which were determined by FACS at 7 days post transduction, are shown. […] Genomic DNAs were extracted from the transduced macrophages in FIG. 6B, and were used in a quantitative 2LTR circle PCR assay. Viral production was determined by p24 ELISA with the collected media. […]\n(§2) First, the cytotoxicity of rACT in human primary CD4^+ T cells, human primary macrophages, human microglial CHME5, and human premonocytic U937 cell lines was assessed. Cells were incubated with different concentrations of rACT (up to 1 mM) for 2 days, and cell survival was determined. […]"}, "[3]": {"test_system": "CHME5 cells", "experiment": "Cytotoxicity of rACT, FACS/trypan blue", "assay_type": "cell-based, human", "conditions": "concentrations up to 1 mM, 2 days", "protocol": "as §1, §2"}, "[4]": {"test_system": "human primary CD4+ T cells", "experiment": "Cytotoxicity of rACT, FACS/trypan blue", "assay_type": "cell-based", "conditions": "concentrations up to 1 mM, 2 days", "protocol": "as §1, §2"}, "[5]": {"test_system": "HIV-1 vector (D3-GFP) in primary human macrophages", "experiment": "HIV-GFP vector transduction of primary macrophages (GFP FACS)", "assay_type": "cell-based", "conditions": "rACT 0.1 and 1 mM, 7 days post infection, versus no treatment", "quoted_text": "Human primary macrophages were preincubated with different concentrations of rACT (0, 10, 100 and 100 μM) for 24 hours and then transduced with HIV-GFP vector (equal p24 amounts). The percentages of GFP positive macrophages and PI positive cells in a representative donor, which were determined by FACS at 7 days post transduction, are shown. […] These experiments were performed in triplicate from three different blood donors.\nPrimary human macrophages were pretreated with ddUTP and transduced with a single round VSV-G pseudotyped HIV-1 vector (D3HIV). […] FIG. 10B is a graph showing the results from flow cytometry analysis of the transduced cells.\nNext, rACT was evaluated for its ability to inhibit HIV-1 replication in non-dividing cells. The transduction efficiency of an HIV-1 vector in primary human macrophages in the presence and absence of rACT was measured. Human macrophages, which were prepared from multiple donors, were pre-incubated with various concentrations of rACT, and then transduced with an HIV vector (D3-GFP), which expressed all HIV-1 proteins except Env and Nef (replaced with eGFP). Virus infectivity was determined by FACS analysis for GFP expression at 7 days post infection.\nDideoxy uracil triphosphate (ddUTP) was assessed for its ability to inhibit viral reverse transcription in non-dividing cells. […]"}, "[6]": {"test_system": "HIV-1 2-LTR DNA circles (proviral DNA synthesis) in macrophages", "experiment": "Quantitative 2LTR circle PCR in transduced macrophages", "assay_type": "cell-based", "conditions": "rACT 0.1 and 1 mM, macrophages", "quoted_text": "Human macrophages, which were prepared from multiple donors, were pre-incubated with various concentrations of rACT, and then transduced with an HIV vector (D3-GFP), which expressed all HIV-1 proteins except Env and Nef (replaced with eGFP).\nas §3\nEqual p24 level of the produced vector was used for infecting human macrophages pre-incubated with different concentrations of rACT (RI Chemicals, CA) for 12 hours. For ddUTP, the produced vector was pre-incubated for at least two hours. One half of the harvested cells were used for determining the percentages of the GFP expressing and/or propidium iodide (PI) stained cells by FACS at 7 days post infection. All cells used to asses transduction efficiency were gated or stained with propidium iodide to assure live cells were measured. The remaining cells were used for the extraction of genomic DNA. Quantitative 2LTR circle PCR assay using real-time PCR was normalized by total genomic DNA (Biorad, Hercules, Calif.)."}, "[7]": {"test_system": "human primary macrophages", "experiment": "Toxicity of rNCTs in macrophages, propidium iodide-based FACS", "assay_type": "cell-based", "conditions": "0.5, 1 and 2 mM, 7 days", "protocol": "Human primary macrophages were incubated in the presence or absence of rACT, rCCT, rGCT, or rUCT (0.5, 1 and 2 mM) for 7 days, and the percent of live cells (cell survival rate) were determined by propidium iodide-based FACS. FIG. 12 includes a graph of cell survival rate with each rNCTP.\nThe continuous HIV-1 culture system in human primary macrophages was also employed to evaluate the toxicity of rNCTs in nondividing cells. Human primary macrophages were incubated in the presence or absence of each rNCT (0.5, 1 and 2 mM) for 7 days, and the percentage of live cells (cell survival rate) were determined by propidium iodide-based FACS."}}, "data": [{"molecule": "Nc1ncnc2c1ncn2[C@@H]1O[C@H](CO)C[C@H]1O", "note": "[rACT, 3′-deoxyadenosine]", "values": [{"measurement": "inhibitory effect on HIV-1 infection (GFP positive cells)", "setting": "[1]", "result": "less of an inhibitory effect"}, {"measurement": "cytotoxicity", "setting": "[2]", "result": "no significant cytotoxicity"}, {"measurement": "cytotoxicity", "setting": "[3]", "result": "no significant cytotoxicity"}, {"measurement": "cytotoxicity", "setting": "[4]", "result": "no significant cytotoxicity"}, {"measurement": "percent of macrophages expressing GFP", "setting": "[5]", "result": "reduced the percent of macrophages expressing GFP"}, {"measurement": "2-LTR circle copy number", "setting": "[6]", "result": "substantially reduced the 2-LTR circle copy number"}, {"measurement": "cytotoxicity (cell survival rate)", "setting": "[7]", "result": "no significant cytotoxicity"}]}]}
